# Experimental data published in patent US8895806B2, “Fucosyl transferase gene” (priority 1999, dated 2014).
# Where two headings read alike, the source gives them in different places.
# B1: recombinant GlcNAc-α1,3-fucosyl transferase (Vigna radiata var. radiata) (protein)
# chain: MMGLLTNLRGSRTDGAQQDSLPVLAPGGNPKRKWSNLMPLVVALVVIAEIAFLGRLDMAKNAAMVDSLADFFYRSRAVVEGDDLGLGLVASDRNSESYSCEEWLEREDAVTYSRGFSKEPIFVSGADQEWKSCSVGCKFGFSGDRKPDAAFGLPQPSGTASILRSMESAEYYAENNIAMARRRGYNIVMTTSLSSDVPVGYFSWAEYDMMAPVQPKTEAALAAAFISNCGARNFRLQALEALEKSNIKIDSYGGCHRNRDGRVNKVEALKHYKFSLAFENSNEEDYVTEKFFQSLVAGTVPVVVGAPNIQDFAPSPGSILHIKEIEDVESVAKTMRYLAENPEAYNQSLRWKYEGPSDSFKALVDMAAVHSSCRLCIHLATVSREKEENNPSLKRRPCKCTRGPETVYHIYVRERGRFEMESIYLRSSNLTLNAVKAAVVLKFTSLNLVPVWKTERPEVIRGGSALKLYKIYPIGLTQRQALYTFSFKGDADFRSHLENNPCAKFEVIFV
# What was measured:
# Assay type in all cases: biochemical, mung bean
# [1] = molecular target: recombinant GlcNAc-α1,3-fucosyl transferase (Vigna radiata, UniProt Q9ST51); test: Assay for GlcNAc-α1,3-fucosyl transferase activity (GnGn peptide and GDP-L-[U-14C]-fucose); settings: for Km: acceptor or donor substrate, unit inferred, read-out: apparent Km-values; for Rel. Activity: acceptor substrate, standard test conditions
# [2] = tested on: GlcNAc-α1,3-fucosyl transferase activity; test: Enzyme activity of insect cells transfected with the α1,3-fucosyl transferase gene versus negative control
# From the text: The encoding region of the assumed GlcNAc-α1,3-fucosyl transferase including cytoplasmatic and transmembrane region was amplified with the forward primer 5′-[…]-3′ (SEQ ID NO: 16) and reverse primer 5′-[…]-3′ (SEQ ID NO: 17) by means of the Expand High Fidelity PCR System of Boehringer Mannheim. The PCR product was double-digested with PstI and BamHI and subcloned in alkaline phosphatase-treated baculovirus transfer vector pVL1393 which previously had been digested with PstI and BamHI. To ensure a homologous recombination, the transfer vector was co-transfected with Baculo Gold viral DNA (PharMingen, Sand Diego, Calif.) in Sf9 insect cells in IPL-41 Medium with lipofectin. After an incubation of 5 days at 27° C., various volumes of the supernatant with the recombinant virus were used for infecting the Sf21 insect cells. After an incubation of 4 days at 27° C. in IPL-41 Medium with 5% FCS, the […] cells were harvested and washed 2× with phosphate-buffered saline solution. The cells were resuspended in 25 mM Tris HCl buffer, pH 7.4, with 2% Triton X-100 and broken up by sonication on ice.
# The homogenate and the cell supernatant were assayed for GlcNAc-α1,3-fucosyl transferase. Blind samples were carried out with recombinant baculovirus which codes for the tobacco-GlcNAc-transferase I (Strasser et al., 1999, Glycobiology, in the process of printing). […]
# [3] = substrate: C[C@@H]1O[C@H](OP(=O)(O)OP(=O)(O)OC[C@H]2O[C@@H](n3cnc4c(=O)[nH]c(N)nc43)[C@H](O)[C@@H]2O)[C@@H](O)[C@H](O)[C@@H]1O; test: Assay for GlcNAc-α1,3-fucosyl transferase activity (GnGn peptide and GDP-L-[U-14C]-fucose); settings: other: acceptor or donor substrate, unit inferred; pH 7.4; 27.0 °C
# [4] = additive conc. 10 mM, recombinant transferase
molecule,measurement,setting,value
GlcNAcβ1-2Manα1-3[Manα1-3(Manα1-6)Manα1-6]Manβ1-4GlcNAcβ1-4GlcNAcβ1-Asn [M5Gn-Asn],Km,[1],230 µM
same,Rel. Activity,[1]; recombinant transferase,71%
[Cl-].[Cl-].[Co+2] [CoCl2],Relative Activity (Acceptor: GnGn-peptide),[1],35%
O=C(O)CN(CCN(CC(=O)O)CC(=O)O)CC(=O)O [EDTA],Relative Activity (Acceptor: GnGn-peptide),[1]; [4],18%
[Cl][Mn][Cl] [MnCl2],Relative Activity (Acceptor: GnGn-peptide),"[1]; additive conc. 10 mM, […]",100%
same,effect of addition of bivalent cations on activity of the recombinant transferase,[1]; result in words,enhances the activity
GlcNAcβ1-2Manα1-3(GlcNAβ1-2Manα1-6)Manβ1-4GlcNAcβ1-4GlcNAcβ1-Asn [GnGn-peptide],Km,[1],190 µM
same,Rel. Activity,[1]; recombinant transferase,100%
[Cl-].[Cl-].[Mg+2] [MgCl2],Relative Activity (Acceptor: GnGn-peptide),[1]; [4],52%
[Cl-].[Cl-].[Zn+2] [ZnCl2],Relative Activity (Acceptor: GnGn-peptide),[1]; [4],0.6%
Galβ1-3GlcNAc,Rel. Activity,[1]; recombinant transferase,0%
CC(=O)N[C@H]1C(O)O[C@H](CO)[C@@H](O[C@@H]2O[C@H](CO)[C@H](O)[C@H](O)[C@H]2O)[C@@H]1O (stereo partly shown) [Galβ-4GlcNAc],Rel. Activity,[1]; recombinant transferase,0%
[Cl][Ni][Cl] [NiCl2],Relative Activity (Acceptor: GnGn-peptide),"[1]; additive conc. 10 mM, […]",24%
Galβ1-3GlcNAcβ1-3Galβ1-4Glc,Rel. Activity,[1]; recombinant transferase,0%
[Ca+2].[Cl-].[Cl-] [CaCl2],Relative Activity (Acceptor: GnGn-peptide),"[1]; additive conc. 10 mM, […]",82%
GlcNAcβ1-2Manα1-3(GlcNAcβ1-2Manα1-6)Manβ1-4GlcNAcβ1-4(Fucα1-6)GlcNAcβ1-Asn [GnGnF^6-peptide],Km,[1],130 µM
same,Rel. Activity,[1]; recombinant transferase,87%
[Cl][Cu][Cl] [CuCl2],Relative Activity (Acceptor: GnGn-peptide),[1]; [4],3%
[Cl][Cd][Cl] [CdCl2],Relative Activity (Acceptor: GnGn-peptide),"[1]; additive conc. 10 mM, […]",44%
B1,enzyme activity of the cotransfected cells and their supernatant relative to negative controls,"[2]; Sf21 insect cells, homogenate and supernatant, at best",≤ 30 ×
same,"increase in the GlcNAc-α1,3-fucosyl transferase coming from the recombinant baculoviruses","[2]; corrected for endogenous insect α1,6-fucosyl transferase activity",> 100 -fold
same,Km,[3],110 µM
